Test results published in patent publication US20260070903A1, “NOVEL PYRIDO[3,4-D]PYRIMIDIN-8-ONE DERIVATIVE HAVING PROTEIN KINASE INHIBITORY ACTIVITY, AND PHARMACEUTICAL COMPOSITION FOR PREVENTING, ALLEVIATING, OR TREATING CANCER, COMPRISING SAME” (KOREA INSTITUTE OF SCIENCE AND TECHNOLOGY, priority 2019, published 2026).

Key:
EPHB3 = EPHB3 (Homo sapiens, UniProt P54753); experiment: Kinase panel biochemical assay, EPHB3; conditions: single concentration of 1 μM, read-out: percent inhibition of kinase
Method: (§1) As a test compound, Compound No. 55 was used. The percent inhibition of each kinase when treated with the test compound at a single concentration of 1 μM was measured, and the residual enzyme activity values (%) of the kinases were calculated. Kinases whose calculated residual enzyme activity values (%) was 30% or less (i.e., kinases inhibited by 70% or more) are as follows: […]

KHS = KHS (Homo sapiens, UniProt Q9Y4K4); experiment: Kinase panel biochemical assay, KHS; conditions: single concentration of 1 μM, read-out: percent inhibition of kinase
KHS, sequence (Q9Y4K4 whole entry): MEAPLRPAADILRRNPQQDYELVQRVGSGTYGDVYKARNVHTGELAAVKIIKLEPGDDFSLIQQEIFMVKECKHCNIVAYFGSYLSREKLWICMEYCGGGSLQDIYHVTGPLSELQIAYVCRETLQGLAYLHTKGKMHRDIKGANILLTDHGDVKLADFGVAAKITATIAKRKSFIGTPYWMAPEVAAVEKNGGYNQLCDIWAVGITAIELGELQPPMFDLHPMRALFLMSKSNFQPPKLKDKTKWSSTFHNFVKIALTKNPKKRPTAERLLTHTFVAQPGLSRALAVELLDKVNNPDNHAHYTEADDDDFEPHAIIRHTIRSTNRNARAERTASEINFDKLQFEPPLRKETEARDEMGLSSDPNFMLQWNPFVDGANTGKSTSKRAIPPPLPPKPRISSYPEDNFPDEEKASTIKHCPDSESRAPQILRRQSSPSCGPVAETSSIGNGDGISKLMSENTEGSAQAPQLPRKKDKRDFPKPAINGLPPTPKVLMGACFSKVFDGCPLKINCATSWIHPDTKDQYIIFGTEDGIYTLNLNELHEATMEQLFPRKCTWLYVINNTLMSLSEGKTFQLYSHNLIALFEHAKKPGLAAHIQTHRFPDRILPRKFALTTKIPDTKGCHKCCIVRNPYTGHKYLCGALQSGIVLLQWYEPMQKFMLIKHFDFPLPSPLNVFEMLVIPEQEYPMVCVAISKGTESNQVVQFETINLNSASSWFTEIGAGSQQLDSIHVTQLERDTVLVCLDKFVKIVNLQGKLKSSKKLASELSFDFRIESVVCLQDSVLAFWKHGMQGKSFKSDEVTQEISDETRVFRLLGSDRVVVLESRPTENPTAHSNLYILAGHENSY
Method: as §1

GCK [1] = biological target: T1, GCK (Homo sapiens, UniProt Q12851); experiment: Kinase panel biochemical assay, GCK; conditions: single concentration of 1 μM, read-out: percent inhibition of kinase
T1 sequence (Q12851 1-820): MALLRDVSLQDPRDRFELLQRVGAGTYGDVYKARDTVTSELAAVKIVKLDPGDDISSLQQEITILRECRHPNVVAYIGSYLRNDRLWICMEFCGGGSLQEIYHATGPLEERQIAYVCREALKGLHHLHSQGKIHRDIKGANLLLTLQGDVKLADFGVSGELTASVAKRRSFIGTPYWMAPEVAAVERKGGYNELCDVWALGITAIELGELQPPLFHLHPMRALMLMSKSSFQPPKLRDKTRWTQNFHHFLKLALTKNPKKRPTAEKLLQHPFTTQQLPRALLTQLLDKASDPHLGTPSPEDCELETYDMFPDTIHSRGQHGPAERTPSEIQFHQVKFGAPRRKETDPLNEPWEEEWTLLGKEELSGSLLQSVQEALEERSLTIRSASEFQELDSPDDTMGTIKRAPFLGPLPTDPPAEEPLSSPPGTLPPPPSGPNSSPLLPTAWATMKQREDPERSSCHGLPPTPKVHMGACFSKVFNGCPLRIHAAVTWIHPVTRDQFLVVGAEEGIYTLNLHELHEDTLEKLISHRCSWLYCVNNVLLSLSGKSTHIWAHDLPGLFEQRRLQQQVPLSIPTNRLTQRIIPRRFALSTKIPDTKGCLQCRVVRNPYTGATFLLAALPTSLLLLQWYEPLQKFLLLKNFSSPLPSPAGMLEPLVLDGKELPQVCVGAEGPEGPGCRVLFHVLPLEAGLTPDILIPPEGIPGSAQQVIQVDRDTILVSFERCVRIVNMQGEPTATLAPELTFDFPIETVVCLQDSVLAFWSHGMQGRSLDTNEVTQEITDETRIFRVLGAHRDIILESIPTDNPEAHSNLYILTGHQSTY
Method: as §1

ZAK = ZAK (Homo sapiens, UniProt Q9NYL2); experiment: Kinase panel biochemical assay, ZAK; conditions: single concentration of 1 μM, read-out: percent inhibition of kinase
Method: as §1

LYN = LYN (Homo sapiens, UniProt P07948); experiment: Kinase panel biochemical assay, LYN; conditions: single concentration of 1 μM, read-out: percent inhibition of kinase
Method: as §1

EPHB1 = EPHB1 (Homo sapiens, UniProt P54762); experiment: Kinase panel biochemical assay, EPHB1; conditions: single concentration of 1 μM, read-out: percent inhibition of kinase
Method: as §1

PDGFRb = PDGFRb (Homo sapiens, UniProt P09619); experiment: Kinase panel biochemical assay, PDGFRb; conditions: single concentration of 1 μM, read-out: percent inhibition of kinase
Method: as §1

c-Src = c-Src (Homo sapiens, UniProt P12931); experiment: Kinase panel biochemical assay, c-Src; conditions: single concentration of 1 μM, read-out: percent inhibition of kinase
Method: as §1

FGFR1 = FGFR1 (Homo sapiens, UniProt P11362); experiment: Kinase panel biochemical assay, FGFR1; conditions: single concentration of 1 μM, read-out: percent inhibition of kinase
Method: as §1

FMS = FMS (Homo sapiens, UniProt P07333); experiment: Kinase panel biochemical assay, FMS; conditions: single concentration of 1 μM, read-out: percent inhibition of kinase
Method: as §1

EPHA1 = EPHA1 (Homo sapiens, UniProt P21709); experiment: Kinase panel biochemical assay, EPHA1; conditions: single concentration of 1 μM, read-out: percent inhibition of kinase
Method: as §1

GCK [2] = biological target: T1, GCK; experiment: Inhibitory activity against GCK kinase (IC50); format: biochemical
Method: The inhibitory activities of the compounds of the present disclosure against two kinases, GCK and ACK1, were measured, and the IC50 values thereof were calculated.

YES = YES (Homo sapiens, UniProt P07947); experiment: Kinase panel biochemical assay, YES; conditions: single concentration of 1 μM, read-out: percent inhibition of kinase
Method: as §1

FRK = FRK (Homo sapiens, UniProt P42685); experiment: Kinase panel biochemical assay, FRK; conditions: single concentration of 1 μM, read-out: percent inhibition of kinase
FRK, sequence (P42685 whole entry): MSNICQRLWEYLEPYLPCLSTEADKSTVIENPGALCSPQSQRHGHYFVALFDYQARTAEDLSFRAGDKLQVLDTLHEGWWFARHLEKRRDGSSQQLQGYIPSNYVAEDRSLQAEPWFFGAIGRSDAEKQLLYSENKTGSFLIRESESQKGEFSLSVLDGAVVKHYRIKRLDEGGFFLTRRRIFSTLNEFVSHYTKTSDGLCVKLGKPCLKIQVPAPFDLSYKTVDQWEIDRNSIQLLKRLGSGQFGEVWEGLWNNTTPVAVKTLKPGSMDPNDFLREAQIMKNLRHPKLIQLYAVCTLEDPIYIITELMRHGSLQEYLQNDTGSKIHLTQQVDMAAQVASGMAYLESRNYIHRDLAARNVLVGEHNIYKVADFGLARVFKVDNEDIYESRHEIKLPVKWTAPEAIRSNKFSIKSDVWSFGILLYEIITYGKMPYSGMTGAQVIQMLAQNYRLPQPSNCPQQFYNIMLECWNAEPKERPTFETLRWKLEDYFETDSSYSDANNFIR
Method: as §1

ABL1 = ABL1 (Homo sapiens, UniProt P00519); experiment: Kinase panel biochemical assay, ABL1; conditions: single concentration of 1 μM, read-out: percent inhibition of kinase
ABL1, sequence (P00519 whole entry): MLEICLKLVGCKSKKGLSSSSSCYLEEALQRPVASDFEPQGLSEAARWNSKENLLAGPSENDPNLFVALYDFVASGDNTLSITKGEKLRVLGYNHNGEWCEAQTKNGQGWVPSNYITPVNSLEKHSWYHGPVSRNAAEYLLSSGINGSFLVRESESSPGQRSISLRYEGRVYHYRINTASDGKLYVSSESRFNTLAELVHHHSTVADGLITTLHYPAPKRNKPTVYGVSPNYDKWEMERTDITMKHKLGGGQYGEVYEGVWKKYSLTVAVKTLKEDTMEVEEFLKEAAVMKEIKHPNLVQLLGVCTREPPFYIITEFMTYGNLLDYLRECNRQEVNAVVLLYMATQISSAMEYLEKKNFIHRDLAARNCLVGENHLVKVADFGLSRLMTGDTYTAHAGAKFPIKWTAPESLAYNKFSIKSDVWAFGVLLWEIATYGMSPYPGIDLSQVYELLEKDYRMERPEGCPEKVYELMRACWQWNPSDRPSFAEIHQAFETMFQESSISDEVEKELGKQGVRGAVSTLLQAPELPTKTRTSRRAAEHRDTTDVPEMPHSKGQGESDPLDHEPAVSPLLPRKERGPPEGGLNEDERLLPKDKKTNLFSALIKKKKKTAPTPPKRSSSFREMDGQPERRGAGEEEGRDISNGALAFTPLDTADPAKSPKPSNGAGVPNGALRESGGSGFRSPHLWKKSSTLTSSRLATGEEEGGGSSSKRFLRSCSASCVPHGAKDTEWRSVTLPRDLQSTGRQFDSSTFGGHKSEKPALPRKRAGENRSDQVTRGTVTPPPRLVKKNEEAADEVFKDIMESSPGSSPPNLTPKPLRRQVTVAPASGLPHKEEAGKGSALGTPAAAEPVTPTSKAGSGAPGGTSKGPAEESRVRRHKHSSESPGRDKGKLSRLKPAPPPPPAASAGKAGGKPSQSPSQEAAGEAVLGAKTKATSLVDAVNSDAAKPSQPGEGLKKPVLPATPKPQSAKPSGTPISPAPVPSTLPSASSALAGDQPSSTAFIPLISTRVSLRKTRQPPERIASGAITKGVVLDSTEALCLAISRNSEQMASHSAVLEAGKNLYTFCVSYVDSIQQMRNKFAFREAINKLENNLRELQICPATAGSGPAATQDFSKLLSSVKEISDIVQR
Method: as §1

TIE2 = TIE2 (Homo sapiens, UniProt Q02763); experiment: Kinase panel biochemical assay, TIE2; conditions: single concentration of 1 μM, read-out: percent inhibition of kinase
TIE2, sequence (Q02763 23-1124): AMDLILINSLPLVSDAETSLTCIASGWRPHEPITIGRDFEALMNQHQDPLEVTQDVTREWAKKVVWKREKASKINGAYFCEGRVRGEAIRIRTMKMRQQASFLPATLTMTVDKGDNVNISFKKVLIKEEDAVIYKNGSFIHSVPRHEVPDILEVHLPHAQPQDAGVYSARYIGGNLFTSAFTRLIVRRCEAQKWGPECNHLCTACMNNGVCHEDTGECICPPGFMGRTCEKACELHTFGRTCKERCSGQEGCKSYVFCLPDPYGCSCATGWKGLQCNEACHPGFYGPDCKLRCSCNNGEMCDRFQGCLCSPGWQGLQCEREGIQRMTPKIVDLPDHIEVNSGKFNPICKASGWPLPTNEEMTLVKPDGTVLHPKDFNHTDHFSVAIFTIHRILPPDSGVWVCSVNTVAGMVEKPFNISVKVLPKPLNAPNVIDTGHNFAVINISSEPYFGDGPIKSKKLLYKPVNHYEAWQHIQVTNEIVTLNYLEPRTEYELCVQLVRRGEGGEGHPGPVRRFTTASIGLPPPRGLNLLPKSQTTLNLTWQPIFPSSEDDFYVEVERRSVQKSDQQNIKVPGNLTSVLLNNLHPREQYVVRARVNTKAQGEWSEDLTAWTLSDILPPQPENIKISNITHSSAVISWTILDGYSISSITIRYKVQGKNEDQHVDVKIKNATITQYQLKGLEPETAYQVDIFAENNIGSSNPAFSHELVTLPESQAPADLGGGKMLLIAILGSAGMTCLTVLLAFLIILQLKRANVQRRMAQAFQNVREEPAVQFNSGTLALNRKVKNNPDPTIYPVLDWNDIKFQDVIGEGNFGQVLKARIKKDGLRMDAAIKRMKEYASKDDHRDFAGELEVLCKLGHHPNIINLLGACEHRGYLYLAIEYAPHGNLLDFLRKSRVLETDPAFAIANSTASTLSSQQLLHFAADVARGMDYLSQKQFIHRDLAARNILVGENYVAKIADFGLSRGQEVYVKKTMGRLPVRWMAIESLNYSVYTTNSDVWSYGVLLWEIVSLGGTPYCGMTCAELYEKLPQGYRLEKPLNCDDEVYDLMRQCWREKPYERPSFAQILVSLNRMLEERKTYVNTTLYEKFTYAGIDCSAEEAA
Method: as §1

OCI-AML3 (N-Ras Q61L) = experiment: Proliferation inhibitory activity, OCI-AML3; format: cell-based, human; conditions: Homo sapiens, OCI-AML-3
Method: The inhibitory activities of the compounds of the present disclosure against the proliferation of the mt-NRAS (G12D) Ba/F3 and OCI-AML3 (mt-NRAS) cell lines were measured and the GI50 values thereof were calculated.

SRMS = SRMS (Homo sapiens, UniProt Q9H3Y6); experiment: Kinase panel biochemical assay, SRMS; conditions: single concentration of 1 μM, read-out: percent inhibition of kinase
Method: as §1

RAF1 = RAF1 (Homo sapiens, UniProt P04049); experiment: Kinase panel biochemical assay, RAF1; conditions: single concentration of 1 μM, read-out: percent inhibition of kinase
Method: as §1

FLT1 = FLT1 (Homo sapiens, UniProt P17948); experiment: Kinase panel biochemical assay, FLT1; conditions: single concentration of 1 μM, read-out: percent inhibition of kinase
Method: as §1

BMX = BMX (Homo sapiens, UniProt P51813); experiment: Kinase panel biochemical assay, BMX; conditions: single concentration of 1 μM, read-out: percent inhibition of kinase
Method: as §1

EPHA2 = EPHA2 (Homo sapiens, UniProt P29317); experiment: Kinase panel biochemical assay, EPHA2; conditions: single concentration of 1 μM, read-out: percent inhibition of kinase
Method: as §1

CSK = CSK (Homo sapiens, UniProt P41240); experiment: Kinase panel biochemical assay, CSK; conditions: single concentration of 1 μM, read-out: percent inhibition of kinase
Method: as §1

EPHA4 = EPHA4 (Homo sapiens, UniProt P54764); experiment: Kinase panel biochemical assay, EPHA4; conditions: single concentration of 1 μM, read-out: percent inhibition of kinase
Method: as §1

EPHB2 = EPHB2 (Homo sapiens, UniProt P29323); experiment: Kinase panel biochemical assay, EPHB2; conditions: single concentration of 1 μM, read-out: percent inhibition of kinase
Method: as §1

PDGFRa = PDGFRa (Homo sapiens, UniProt P16234); experiment: Kinase panel biochemical assay, PDGFRa; conditions: single concentration of 1 μM, read-out: percent inhibition of kinase
Method: as §1

LCK = LCK (Homo sapiens, UniProt P06239); experiment: Kinase panel biochemical assay, LCK; conditions: single concentration of 1 μM, read-out: percent inhibition of kinase
Method: as §1

ABL2 = ABL2 (Homo sapiens, UniProt P42684); experiment: Kinase panel biochemical assay, ABL2; conditions: single concentration of 1 μM, read-out: percent inhibition of kinase
ABL2, sequence (P42684 whole entry): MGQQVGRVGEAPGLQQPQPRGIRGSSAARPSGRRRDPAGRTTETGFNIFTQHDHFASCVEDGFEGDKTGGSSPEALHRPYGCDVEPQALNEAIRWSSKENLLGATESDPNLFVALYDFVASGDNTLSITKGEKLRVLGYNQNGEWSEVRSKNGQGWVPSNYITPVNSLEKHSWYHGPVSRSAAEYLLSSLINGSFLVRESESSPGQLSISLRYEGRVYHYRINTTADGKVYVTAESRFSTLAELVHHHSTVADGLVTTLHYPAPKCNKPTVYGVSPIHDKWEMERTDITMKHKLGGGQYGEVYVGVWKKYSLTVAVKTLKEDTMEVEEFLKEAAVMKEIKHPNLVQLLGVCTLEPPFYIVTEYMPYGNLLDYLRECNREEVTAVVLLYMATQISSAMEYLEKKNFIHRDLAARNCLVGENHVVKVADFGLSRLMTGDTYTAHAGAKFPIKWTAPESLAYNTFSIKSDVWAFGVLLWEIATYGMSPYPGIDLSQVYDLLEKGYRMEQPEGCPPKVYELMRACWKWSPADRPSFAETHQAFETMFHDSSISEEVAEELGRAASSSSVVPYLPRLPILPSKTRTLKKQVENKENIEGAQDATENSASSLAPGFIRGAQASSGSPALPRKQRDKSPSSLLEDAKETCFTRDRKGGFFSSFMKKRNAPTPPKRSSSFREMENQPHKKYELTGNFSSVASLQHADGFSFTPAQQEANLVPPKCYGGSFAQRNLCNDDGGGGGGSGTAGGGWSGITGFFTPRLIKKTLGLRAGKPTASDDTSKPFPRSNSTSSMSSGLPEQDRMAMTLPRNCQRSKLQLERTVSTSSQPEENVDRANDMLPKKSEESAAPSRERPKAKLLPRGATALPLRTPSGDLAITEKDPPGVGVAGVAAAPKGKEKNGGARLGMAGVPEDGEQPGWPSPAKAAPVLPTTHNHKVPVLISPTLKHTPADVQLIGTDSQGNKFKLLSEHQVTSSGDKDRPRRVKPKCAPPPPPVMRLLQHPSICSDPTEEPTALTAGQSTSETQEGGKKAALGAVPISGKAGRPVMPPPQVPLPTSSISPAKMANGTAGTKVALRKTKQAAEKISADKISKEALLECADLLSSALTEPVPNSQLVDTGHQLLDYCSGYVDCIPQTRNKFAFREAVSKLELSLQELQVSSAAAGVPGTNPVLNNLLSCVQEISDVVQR
Method: as §1

Cc1ccc(NC(=O)c2cccc(C(F)(F)F)c2)cc1-c1cc2cnc(N)nc2c(=O)[nH]1 [Compound No. 55, N-(3-(2-amino-8-oxo-7,8-dihydropyrido[3,4-d]pyrimidin-6-yl)-4-methylphenyl)-3-(trifluoromethyl)benzamide]
1000 to 10000 nM: IC50 (GCK [2])
≥ 70%: inhibition at 1 µM (EPHB3) | inhibition at 1 µM (KHS) | inhibition at 1 µM (GCK [1]) | inhibition at 1 µM (ZAK) | inhibition at 1 µM (LYN) | inhibition at 1 µM (EPHB1) | inhibition at 1 µM (PDGFRb) | inhibition at 1 µM (c-Src) | inhibition at 1 µM (FGFR1) | inhibition at 1 µM (FMS) | inhibition at 1 µM (EPHA1) | inhibition at 1 µM (YES) | inhibition at 1 µM (FRK) | inhibition at 1 µM (ABL1) | inhibition at 1 µM (TIE2) | inhibition at 1 µM (SRMS) | inhibition at 1 µM (RAF1) | inhibition at 1 µM (FLT1) | inhibition at 1 µM (BMX) | inhibition at 1 µM (EPHA2) | inhibition at 1 µM (CSK) | inhibition at 1 µM (EPHA4) | inhibition at 1 µM (EPHB2) | inhibition at 1 µM (PDGFRa) | inhibition at 1 µM (LCK) | inhibition at 1 µM (ABL2)
< 0.5 µM: GI50 (OCI-AML3 (N-Ras Q61L))
